These results are taken from patent US8853236B2, “Formulations containing clopidogrel and sulfoalkyl ether cyclodextrin and methods of use” (Cydex Pharmaceuticals, Inc., priority 2007, dated 2014).

In one series the test system is animals. The note with it: in animals; cited from earlier work.
The conditions of series [1]: in vivo; cited from earlier work.
Series [2] can be described thus: Competitive binding study of clopidogrel bisulfate and aspirin with SAE-CD (Example 22). It is filed as physicochemical. The note with it: pH ~5.5. Here is the method:
In this example, excess clopidogrel bisulfate was added to solutions containing fixed amounts of SAE-CD and varying amounts of aspirin. FIG. 7 depicts the results of a competitive binding study. […] Thus, in a formulation containing both clopidogrel and aspirin, the formulation may or may not require additional SAE-CD to solubilize both ingredients than would be required to solubilize either component individually.
The competitive binding study was conducted using clopidogrel bisulphate and aspirin (ASA, acetyl salicylic acid). The work was conducted on an auto-titrator such that the pH was maintained at ˜5.5 using sodium hydroxide. The required amount of SBE-β-CD and aspirin was first solubilized in 0.2 μm Millipore filtered water then transferred to the auto-titrator.
After equilibration, the solutions were sampled and analyzed for clopidogrel content.

For the next series, the system named is platelet aggregation. The following applies: subjects who were non-responders to clopidogrel (10-300 mg) perorally.
Series [3] has as its system ADP-induced platelet aggregation. The following applies: i.v., 0.1-300 mg clopidogrel.
Description: The response was determined as percent of platelet aggregation inhibition following exposure of the subjects' plasma ex-vivo to ADP (5 μM).
Blood samples for determination of ADP-induced platelet aggregation inhibition using the impedance method (see Dyszkiewicz-Korpanty et al. above) were obtained from arm #2 (the arm not used for dosing) at baseline (check-in, Day −1), 15 and 30 minutes, and 2, 5, and 24 hours after dose initiation.
Maximum % platelet inhibition and area under the % platelet inhibition curve was calculated for each individual and summarized by treatment group
For series [4] the following is noted: pH 5.6, 37° C., 0.1M phosphate buffer; cited from earlier work.
A further series has as its system phosphodiesterase. The note with it: cited from earlier work.

As for `COC(=O)[C@@H](c1ccccc1Cl)N1CCc2sccc2C1` (single isomer, unassigned) [(R)-enantiomer of clopidogrel], the convulsions entry in the series on animals is “can provoke convulsions”. The antithrombotic activity entry in series [1] was “devoid of antithrombotic activity”.

Consider `CC(=O)Oc1ccccc1C(=O)O` [aspirin, acetyl salicylic acid], for which the “binding with SAE-CD in a solution containing SAE-CD and clopidogrel salt” value in series [2] is “binds competitively”.

`COC(=O)[C@H](c1ccccc1Cl)N1CCc2sccc2C1.O=S(=O)(O)O` [clopidogrel bisulfate, methyl (+)-(S)-α-(2-chlorophenyl)-6,7-dihydrothieno[3,2-c]pyridine-5(4H)-acetate sulfate (1:1)]: the “subjects deemed responders after parenteral administration” value in the series on platelet aggregation is listed as 9-25%. Besides, the “time to onset of the therapeutic effect (platelet aggregation inhibition, 5 μM ADP ex vivo)” value in series [3] was at most 15 min. Moreover, the t90 toward hydrolysis result in series [4] was “about 52.7 days”. The “inhibition of phosphodiesterase activity” value in the series with phosphodiesterase was “does not inhibit”.
